Source: patent US10045968B2, “Bicyclic compound, production and use thereof” (TOBIRA THERAPEUTICS, INC., priority 2001, dated 2018)

Target: T1, human CCR5 (Homo sapiens, UniProt P51681)
T1 construct: expressed in transfected cells; host or cells: CHO-K1 cells, stably transfected with pCKR5 (pcDNA3.1 backbone), Geneticin-selected
Experiment: Inhibition of [125I]-RANTES binding to CCR5/CHO cells (CCR5 antagonist activity)
Settings: 40 min, test compound 1 μM, 100 pM [125I]-RANTES as ligand, room temperature, read-out: Binding Inhibitory Ratio (%)
Protocol: (1) Cloning of Human CCR5 Chemokine Receptor Cloning of CCR5 gene was conducted from human spleen cDNA by PCR method. Using cDNA (0.5 ng) from spleen (Toyobo, QUICK-Clone cDNA) as a genetic template, primer sets prepared by referring to CCR5 gene nucleotide sequence described by Samson et al. (Biochemistry 35 (11), 3362-3367 (1996), i.e., (2) Preparation of Expression Plasmid of Human CCR5 […] The DNA fragments and an expression plasmid for animal cells pcDN A3.1 (Funakoshi), which was previously digested by XbaI and BamHI, were mixed and ligated by DNA Ligation Kit Ver. 2 (Takara Shuzo). Transformation of E. coli JM109 competent cells (Takara Shuzo) gave plasmid pCKR5. (3) Introduction of the Human CCR5 Expression Plasmid into CHO-K1 Cells and Expression Thereof […] The cells were washed with PBS (Lifetech Oriental), centrifuged (1000 rpm, 5 minutes), and resuspended in PBS. The DNA was introduced into the cells using Gene Pulser (BioRad) according to the following conditions. […] The cells were diluted to a concentration of 10^4 cells/ml, and inoculated in 96 well plate (Becton Dickinson), to obtain Geneticin-resistant cells. The Geneticin-resistant cells ware grown in 96 well plate (Becton Dickinson), and CCR5 expressing cells were selected from the resistant cells. Namely, in an assay buffer, (Ham F12 medium containing 0.5% BSA, and 20 mM HEPES (Wako Pure Chemical Ind., pH 7.2)), containing 200 pM [^125I]-RANTES (Amersham) as a ligand, the cells were subjected to binding reaction at room temperature for 40 minutes. The well plate containing the cells was washed with ice-cooled PBS, added with 1M NaOH in an amount of 50 μl/well and stirred. The cells to which the ligand bound specifically, i.e., CCR5/CHO cells, were selected by measurement of radioactivity by γ-counter. (4) Evaluation of Compounds Based on CCR5 Antagonist Activity The CCR5/CHO cells were inoculated in 96 well microplate at a concentration of 5×10^4 cells/well, and grown for 24 hours. After removal of the medium by aspiration, to each well was added an assay buffer containing a test compound (1 μM), and (^125I)/RANTES (Amersham) used as a ligand at a concentration of 100 pM. The mixture was subjected to the reaction at room temperature for 40 minutes. After removal of the assay buffer by aspiration, each well was washed with cooled PBS twice. Then, 200 μl MicroScint 20 (Packerd) was added to each well, and the radioactivity of each well was measured by TopCount (Packard). According to the method above, inhibitory ratios to CCR5 binding of the test compounds were determined.

T1 sequence (P51681 whole entry): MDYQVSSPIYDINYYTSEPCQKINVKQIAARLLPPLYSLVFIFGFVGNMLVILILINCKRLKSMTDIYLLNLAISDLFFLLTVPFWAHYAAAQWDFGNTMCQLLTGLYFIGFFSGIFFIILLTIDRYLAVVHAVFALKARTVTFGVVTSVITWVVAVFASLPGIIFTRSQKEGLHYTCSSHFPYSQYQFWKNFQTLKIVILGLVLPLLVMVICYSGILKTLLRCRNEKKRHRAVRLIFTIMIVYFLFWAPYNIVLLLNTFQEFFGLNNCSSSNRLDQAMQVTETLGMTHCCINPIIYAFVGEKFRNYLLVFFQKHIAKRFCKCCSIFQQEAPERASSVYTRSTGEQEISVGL

Q: Which inhibition at 1 µM does the source give for `CCCCOCCOc1ccc(-c2ccc3c(c2)C=C(C(=O)Nc2ccc([S+]([O-])Cc4cncn4CCC)cc2)CCCN3c2ccccc2)cc1` (stereo not shown) [Compound 35, 8-[4-(2-butoxyethoxy)phenyl]-1-phenyl-N-[4-[[[1-propylimidazol-5-yl]methyl]sulfinyl]phenyl]-1,2,3,4-tetrahydro-1-benzoazocine-5-carboxamide] here?
A: 100%

Q: How did the inhibition at 1 µM turn out when `CCCCOCCOc1ccc(-c2ccc3c(c2)C=C(C(=O)Nc2ccc(SCc4c(C)ncn4CCC)cc2)CCCN3CC(C)C)cc1` [Compound 36, 8-[4-(2-butoxyethoxy)phenyl]-1-isobutyl-N-[4-[[[4-methyl-1-propylimidazol-5-yl]methyl]sulfanyl]phenyl]-1,2,3,4-tetrahydro-1-benzoazocine-5-carboxamide] was run?
A: 97%

Q: `CCCCOCCOc1ccc(-c2ccc3c(c2)C=C(C(=O)Nc2ccc([S+]([O-])Cc4c(C)ncn4CCC)cc2)CCCN3CC(C)C)cc1` (stereo not shown) [Compound 37, 8-[4-(2-butoxyethoxy)phenyl]-1-isobutyl-N-[4-[[[4-methyl-1-propylimidazol-5-yl]methyl]sulfinyl]phenyl]-1,2,3,4-tetrahydro-1-benzoazocine-5-carboxamide] was tested. Which inhibition at 1 µM did it give?
A: 100%

Q: For `CCCCOCCOc1ccc(-c2ccc3c(c2)C=C(C(=O)Nc2ccc(SCc4cncn4CCC)c(C)c2)CCCN3CC(C)C)cc1` [Compound 38, 8-[4-(2-butoxyethoxy)phenyl]-1-isobutyl-N-[3-methyl-4-[[[1-propylimidazol-5-yl]methyl]sulfanyl]phenyl]-1,2,3,4-tetrahydro-1-benzoazocine-5-carboxamide], which inhibition at 1 µM is on record?
A: 94%

Q: For `CCCCOCCOc1ccc(-c2ccc3c(c2)C=C(C(=O)Nc2ccc([S+]([O-])Cc4cncn4CCC)c(C)c2)CCCN3CC(C)C)cc1` (stereo not shown) [Compound 39, 8-[4-(2-butoxyethoxy)phenyl]-1-isobutyl-N-[3-methyl-4-[[[1-propylimidazol-5-yl]methyl]sulfinyl]phenyl]-1,2,3,4-tetrahydro-1-benzoazocine-5-carboxamide], which inhibition at 1 µM is on record?
A: 99%

Q: Which inhibition at 1 µM does the source give for `CCCCOCCOc1ccc(-c2ccc3c(c2)C=C(C(=O)Nc2ccc(CN(C)C4CCOCC4)cc2)CCCN3CC(C)C)cc1` [Compound 42, 8-(4-(2-butoxyethoxy)phenyl)-1-isobutyl-N-(4-((methyl(tetrahydro-2H-pyran-4-yl)amino)methyl)phenyl)-1,2,3,4-tetrahydro-1-benzoazocine-5-carboxamide] here?
A: 90%

Q: Which inhibition at 1 µM does the source give for `CCCCOCCOc1ccc(-c2ccc3c(c2)C=C(C(=O)Nc2ccc([S+]([O-])Cc4nncn4CCC)cc2)CCCN3CCC)cc1` (stereo not shown) [Compound 50, 8-[4-(2-butoxyethoxy)phenyl]-1-propyl-N-[4-[[(4-propyl-4H-1,2,4-triazol-3-yl)methyl]sulfinyl]phenyl]-1,2,3,4-tetrahydro-1-benzazocine-5-carboxamide] here?
A: 93%

Same assay, conditions: test compound 1 μM, 100 pM [125I]-RANTES as ligand, room temperature, 40 minutes

Q: For `CCCCOCCOc1ccc(-c2ccc3c(c2)C=C(C(=O)Nc2ccc(SCc4cncn4CCC)cc2)CCCN3CC(C)C)cc1` [Compound 8, 8-[4-(2-butoxyethoxy)phenyl]-I-isobutyl-N-[4-[[[1-propyl-1H-imidazol-5-yl]methyl]sulfanyl]phenyl]-1,2,3,4-tetrahydro-1-benzazocine-5-carboxamide], which “Binding Inhibitory Ratio (%)” value is on record?
A: 99%

Q: Which “Binding Inhibitory Ratio (%)” value does the source give for `CCCCOCCOc1ccc(-c2ccc3c(c2)C=C(C(=O)Nc2ccc([S+]([O-])Cc4cncn4CCC)cc2)CCCN3CC(C)CO)cc1` (stereo not shown) [Compound 32, 8-[4-(2-butoxyethoxy)phenyl]-1-(2-methyl-3-hydroxy)propyl-N-[4-[[[1-propylimidazol-5-yl]methyl]sulfinyl]phenyl]-1,2,3,4-tetrahydro-1-benzoazocine-5-carboxamide] here?
A: 100%

Q: Which “Binding Inhibitory Ratio (%)” value does the source give for `CCCOCCOc1ccc(-c2ccc3c(c2)C=C(C(=O)Nc2ccc([S@@+]([O-])Cc4cncn4CCC)cc2)CCCN3CCC)cc1.CS(=O)(=O)O` [Compound 45, (S)-(−)-8-[4-(2-propoxyethoxy)phenyl]-1-propyl-N-[4-[[(1-propyl-1H-imidazol-5-yl)methyl]sulfinyl]phenyl]-1,2,3,4-tetrahydro-1-benzoazocine-5-carboxamide/methanesulfonate] here?
A: 96%
